Measured values reported in US20190352329A1, “BETA-ADRENERGIC BLOCKING COMPOUND” (KING SAUD UNIVERSITY, priority 2018, published 2019).

Columns and labels:
[1] = 6-week application, daily dose of 60 mg/kg b.w., i.p.; cited from earlier work
beta adrenergic receptor = beta adrenergic receptor (Cavia porcellus, UniProt H0W3H1); assay: Blockade of isoprenaline inotropic effect in electrically driven guinea pig left atrium; type: cell-based; conditions: result in words
beta adrenergic receptor, sequence (H0W3H1 1-470): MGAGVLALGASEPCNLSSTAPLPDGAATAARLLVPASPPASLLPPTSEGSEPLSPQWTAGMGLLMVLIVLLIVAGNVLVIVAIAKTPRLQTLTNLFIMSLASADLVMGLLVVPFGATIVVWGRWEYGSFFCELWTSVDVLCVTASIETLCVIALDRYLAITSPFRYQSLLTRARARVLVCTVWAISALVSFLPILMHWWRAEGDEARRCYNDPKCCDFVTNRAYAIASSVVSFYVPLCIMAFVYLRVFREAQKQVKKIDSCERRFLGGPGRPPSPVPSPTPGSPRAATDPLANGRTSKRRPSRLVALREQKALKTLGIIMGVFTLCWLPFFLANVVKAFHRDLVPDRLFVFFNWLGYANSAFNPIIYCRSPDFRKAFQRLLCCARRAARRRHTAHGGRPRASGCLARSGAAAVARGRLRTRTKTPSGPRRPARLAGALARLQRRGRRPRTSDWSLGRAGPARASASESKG
Source text: Data are expressed as means±s. e. mean. IC50s for each drug were estimated through non-linear regression analysis using ISI software for a PC computer. Differences between non paired groups were compared by Student's t-test or ANOVA test with the statistical programme Stat works TM; a value of P equal or smaller than 0.05 was taken as the limit of statistical significance.
To test beta adrenergic receptor blocking effects of compounds 3a and 3b, their actions on the inotropic effects of the beta receptor agonist isoprenaline of the guinea pig left atrium were studied.
Male guinea-pigs weighing 300±400 g were killed by a blow on the head. The heart was quickly removed and placed in oxygenated Krebs-bicarbonate solution. The left atrium was carefully dissected and placed between bipolar platinum electrodes. The base of the atrium was tied to one of the electrodes and the tip to an isometric transducer connected to an amplifier and recorder (Cibertec, Madrid, Spain), with 1 g baseline tension. […]
This concentration was selected because it produced a submaximal and measurable inotropic effect that was reproducible after 7^−1° additions of isoprenaline, given at 30-min intervals. […] Each individual preparation served to provide a full concentration-response curve for a given compound, and from it IC50 was calculated.

| SMILES | direct cardiac effect (heart rate decrease) [1] [%] | blockade of the isoprenaline inotropic response (beta adrenergic receptor) |
| --- | --- | --- |
| CC1(C)CC[C@]2(C(=O)O)CC[C@]3(C)C(=CC[C@@H]4[C@@]5(C)CC[C@H](O)C(C)(C)[C@@H]5CC[C@]43C)[C@@H]2C1 [Oleanolic] | 34 |  |
| COC(=O)C12CCC(C)C(C)C1C1=CCC3C4(C)CCC(OCC(O)CNCC(C)C)C(C)(C)C4CCC3(C)C1(C)CC2 (stereo not drawn) [Compound 3b, methyl-3-β-[2-hydroxy-3-(isobutylamino)propoxy]-urs-12-en-28-oate] |  | blocked the isoprenaline inotropic response almost fully |
| COC(=O)C12CCC(C)C(C)C1C1=CCC3C4(C)CCC(OCC(O)CNC(C)C)C(C)(C)C4CCC3(C)C1(C)CC2 (stereo not drawn) [Compound 3a, methyl 3-β-[2-hydroxy-3-(isopropylamino)propoxy]-urs-12-en-28-oate] |  | blocked the isoprenaline inotropic response almost fully |
